The values below come from PMC3009975, “Blocking spinal CCR2 with AZ889 reversed hyperalgesia in a model of neuropathic pain” (Molecular Pain, 2010).

By pEC50 is commonly meant the EC50 on a negative log10 scale, so that one unit is a factor of ten.

One data set deals with rats. The data set can be described thus: Side effects during behavioural studies (locomotor activity assay, muscle tone, overt signs). As to conditions: highest dose (pregabalin 100 mg/kg p.o.); data not shown. It counts as in vivo, rat.
For another data set, the system named is CCI rats. The experiment in a line: Thermal (heat) hyperalgesia (paw withdrawal latency) in CCI neuropathic rats. It counts as in vivo, rat. As to conditions: p.o., tested 1 h after dosing.
Data set [1] concerns DRG neurons from CCI rats. The data set can be described thus: Calcium imaging of cultured DRG neurons from CCI rats. As to conditions: 1 μM, before (5 min), during and after 100 nM CCL2; n = 6 cells. It counts as cell-based, rat.
Method: Since rCCL2 can activate both CCR2 and CCR5 [25] we used AZ889 to test if a selective CCR2 antagonist can prevent CCL2-induced calcium signalling in native tissue.
Ganglia from L4 to L6 dorsal roots were harvested from CCI animals, 4 to 19 days post-surgery. The tissue was enzymatically digested at 37°C for 90 min with collagenase-A (2 mg/mL) and papain (1 mg/mL) in DMEM. Cells were plated on Poly-D-Lysine coated coverslips and maintained in F12 supplemented with 10% heat inactivated horse serum, 2 mM glutamine-penicillin-streptomycin, and 2 ng/ml NGF and GDNF for 1-3 days in a humidified chamber (5% CO2/95% O2).
The target of the next data set is T1, rat CCR2 receptor (Rattus norvegicus, UniProt O55193).
T1 construct: expressed in transfected cells; host or cells: HEK293s cells co-expressing chimeric Gαqi5
T1 sequence (O55193 1-373): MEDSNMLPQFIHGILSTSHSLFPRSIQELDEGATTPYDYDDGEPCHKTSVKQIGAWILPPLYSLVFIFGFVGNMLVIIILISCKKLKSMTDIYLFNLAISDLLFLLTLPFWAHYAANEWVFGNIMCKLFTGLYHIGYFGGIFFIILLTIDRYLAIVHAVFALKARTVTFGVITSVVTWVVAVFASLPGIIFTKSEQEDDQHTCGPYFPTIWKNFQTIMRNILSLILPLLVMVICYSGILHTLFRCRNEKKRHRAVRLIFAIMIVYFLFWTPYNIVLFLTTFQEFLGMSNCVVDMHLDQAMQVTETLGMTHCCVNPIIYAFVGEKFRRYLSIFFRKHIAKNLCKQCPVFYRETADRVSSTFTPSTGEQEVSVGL
The experiment in a line: Calcium flux assay (FLIPR) in HEK293 s cells (Gαqi5) stably expressing rat CCR2. The class given is cell-based. As to conditions: read-out: EC50, calcium activation of HEK293 s cells expressing CCR2. The text has this:
Chemokine receptors are known to modulate intracellular calcium concentration. A library of designed molecules was screened on HEK cells expressing the receptor using a calcium flux-assay (FLIPR). Compounds capable of blocking the intracellular calcium rise evoked by mouse CCL2 in HEK293 s cells (Gαqi5) stably expressing the rat CCR2 receptor were selected and further profiled by performing dose-response curves. Mouse and rat CCL2 (mCCL2 and rCCL2) purchased from R&D Systems gave similar median effective concentrations (EC50) values (Additional file 1 Figure S1) and mCCL2 was selected to conduct the screening assay. Cells were pre-incubated (30 min) with a given concentration of compound (from 0.04 to 1 μM) and CCR2 calcium-mediated activation was evoked by the addition of mCCL2 (EC50 concentration, 1 nM).
Briefly, HEK293 s cells stably expressing rat CCR2 and the chimeric Gαqi5 were plated (15000 cells per well) in 384-well assay plates in Dulbecco's modified Eagle's medium (DMEM) for 24 h in a humidified atmosphere at 37°C in 5% CO2. After removing the medium by inversion, cells were loaded with the calcium-sensitive dye Fluo4-AM (Molecular Devices), 15 μL per well of 4 μM FLUO-4/Pluronic acid mix (1 mM) in buffer and incubated at 37°C for 1 h in a humidified chamber (5% CO2/95% air). Cells were washed 4 times in Hanks' balanced salt solution buffer supplemented with 20 mM HEPES + 0.25% bovine serum albumin at pH 7.4. Different concentrations of the test compound (from 10 mM stock in dimethyl sulfoxide) were added in buffer for 30 min at 37°C in 5% CO2. In this assay, mouse CCL2 was added at 1 nM in buffer (EC50 value in Figure 1) and mobilization of intracellular calcium was measured online (FLIPR, Molecular Devices). The EC50 and IC50 values were determined using 8-point concentration-response curve using non-linear regression and a four-parameter logistic model (Prism 4.03 software, GraphPad Software Inc).
On the technique in general: Calcium assays in cells follow changes in intracellular calcium, usually with a dye or a luminescent sensor.

Data set [2] deals with non-neuronal cells in spinal cord slices from CCI rats. The experiment in a line: Calcium imaging of non-neuronal cells in spinal cord slices from CCI rats. It counts as cell-based, rat. As to conditions: bath application of 50 nM CCL2; n = 4. On the procedure: (§1) To evaluate this we used spinal cord slices from CCI rats and evaluated if neuronal and non-neuronal cell types were sensitive to CCL2. For these recordings, calcium imaging acquisition was focused on lamina I of the dorsal horn. […] In this region, non-neuronal cells included astrocytes, microglia and other types of glial cells.
(§2) Spinal cord slices from L4 to L6 region were prepared from CCI animals, 4 to 19 days post-surgery, following guidelines by Wan and colleagues. In order to prevent excess bleeding, 20 uL of Xylocaine was injected intramuscularly at several sites on both sides of the spinal cord. Under deep anaesthesia a laminectomy (T11 to L5) was performed. Once exposed, the spinal cord was isolated and submerged in oxygenated ice-cold solution containing (in mM): 250 sucrose, 5 KCl, 2 MgSO4, 1.25 NaH2PO4, 26 NaHCO3 and 10 glucose.

The subject of data set [3] is DRG neurons from CCI rats. The experiment in a line: Whole-cell patch clamp, evoked action potential firing in DRG neurons from CCI rats. The class given is cell-based, rat. In general terms: Patch clamp records ionic current or voltage across a cell membrane.
Method: To assess whether DRG neurons from rats with chronic constriction injury (CCI) were also CCL2-sensitive, we performed whole-cell patch clamp recordings to evaluate the effect of the chemokine on cell excitability. A suprathreshold (500 ms) depolarizing current step was used to evoke a stable baseline of action potentials (Figure 2A) in the absence or presence of locally applied CCL2 (1min) onto the recorded cell.
Ganglia from L4 to L6 dorsal roots were harvested from CCI animals, 4 to 19 days post-surgery. The tissue was enzymatically digested at 37°C for 90 min with collagenase-A (2 mg/mL) and papain (1 mg/mL) in DMEM. […]
DRG cells maintained for 1-3 days in culture were transferred to a recording chamber fixed to the stage of an inverted microscope (Olympus) and constantly perfused (0.5 mL/min) with Dulbecco's phosphate buffered saline (PBS), a standard extracellular bathing solution containing (in mM): 137 NaCl; 8.1 Na2HPO4•7H2O; 2.68 KCl; 1.47 KH2PO4; 0.9 CaCl2; 0.5 MgCl2•6H2O at pH 7 and 275 to 290 mOsm. […] Signals were filtered at 1 kHz, digitized at 10 kHz (Digidata, Molecular Devices) and captured and analyzed off-line (Pclamp9 software, Molecular Devices). Action potentials were recorded with borosilicate glass patch pipettes (2-6 MΩ) filled with solution containing (in mM): 110 K-gluconate, 20 KCl, 10 EGTA, 8 NaCl, 10 HEPES, 1 MgCl2 and 4 Mg-ATP at pH 7.3. […]
The test system of data set [4] is DRG cells harvested from naive rats. The data set can be described thus: Calcium imaging of DRG cells harvested from naive rats. It counts as cell-based, rat. The conditions noted are these: data not shown. The text has this:
An increased number of action potentials in DRG neurons following CCR2 activation is an intriguing observation since CCR2 is a pertussis toxin (PTX)-sensitive GPCR coupled to inhibitory Gi and/or […]. Additionally, CCR2 activation evokes excitatory Ca^2+ rises in DRG cells but the underlying mechanism is still poorly understood. To gain further insight into CCR2-mediated Ca^2+ mobilization, we next evaluated the sensitivity of both neuronal and non-neuronal cell types in the DRG by recording changes in intracellular calcium evoked by CCL2. […] In mixed-cell cultures from CCI rats, CCL2 evoked an intracellular calcium rise in both neuronal and non-neuronal DRG cells (Figure 3A-C). Non-neuronal cells, satellite cells or microglia, were easily distinguished from neurons by their size, morphology and absence of dendritic processes (Figure 3A).
Cells and spinal cord slices were loaded with Fluo4-AM (4 μM, 30 min) in an oxygenated chamber (5% CO2/95% O2). DRG cells and spinal cord slices were washed in PBS and ACSF respectively and placed in a chamber mounted on the stage of a fluorescent microscope (Olympus). […] For each time-lapse image, the fluorescence intensity (F) was averaged over the soma area. Changes in fluorescence (ΔF) were measured as relative changes from baseline fluorescence (F0) and expressed as: […]

For data set [5], the system named is neuronal cells in spinal cord slices from CCI rats. The data set can be described thus: Calcium imaging of neurons in spinal cord slices from CCI rats. The class given is cell-based, rat. The conditions noted are these: bath application of 50 nM CCL2; n = 5. The method, then: as §1, §2
[6] abbreviates: Additional file 1 Figure S1, average of 3 independent experiments.

pEC50: −log10 of the molar value. Entries after “also recorded” stand apart in the source; their conditions may differ. Like-named read-outs stand apart in the source and are kept apart here.

Turning to `CC(C)C[C@H](CN)CC(=O)O` [Pregabalin], the muscle tone result in the data set with rats was “clear decrease in muscle tone”. Further, the “potency in reducing heat hyperalgesia, fold lower than AZ889” value in the data set with CCI rats was 10 fold.
Take `COc1ccc2c(c1)CC[C@@H]1[C@@H]2CC[C@]2(C)[C@@H](NCCCCCCN3C(=O)C=CC3=O)CC[C@@H]12` [U73122]: in data set [1], the “effect on CCL2-evoked calcium mobilization in DRG neurons” value was “significant block of the calcium rise peak; also recorded: significantly blocked”.
On to “mCCL2: mouse CC chemokine ligand 2 (monocyte chemoattractant protein-1), CCR2 agonist, purchased from R&D Systems”, for which the pEC50 with rat CCR2 receptor (setting [6]) is 9.30; with rat CCR2 receptor (Figure 1A), 9.00.
Regarding “rCCL2: rat CC chemokine ligand 2 (monocyte chemoattractant protein-1), CCR2 agonist, purchased from R&D Systems”, the “calcium response in non-neuronal cells” value in data set [2] was 57.8 ± 42.3%. The “increase in evoked firing compared to vehicle” value in data set [3] (CCL2 10 nM, local application 1 min, n = 3) came out at 29 ± 9%. Further, the “increase in evoked firing (facilitated neuronal firing)” value in data set [3] (rCCL2 100 nM, n = 6) was found to be 46 ± 13%. In addition, the pEC50 with rat CCR2 receptor (setting [6]) is 9.10. Besides, the “calcium response in DRG cells from naive rats” value in data set [4] is on record as “did not evoke any response”. Further, the “mean calcium rise peak in neurons” value in data set [5] amounted to 142.5 ± 87.8%.
